Earlier results as cited in patent publication US20100145053A1, “MODIFIED RELEASE CLOPIDOGREL FORMULATION” (CADILA HEALTHCARE LIMITED, priority 2006, published 2010).
Where two headings read alike, the source gives them in different places.

What was measured:
[1] = in vivo
[2] = tested on: platelet aggregation to ADP; conditions: 4 hours after 600-mg load
[3] = tested on: phosphodiesterase
[4] = tested on: platelet aggregation in response to ADP; conditions: 300-mg loading dose followed by 75 mg daily
[5] = tested on: ADP-induced platelet aggregation; conditions: in vivo

| Time of peak concentration of Clopidogrel and its active metabolite post dosing [1] | Inhibition of phosphodiesterase activity [3] | Share of Clopidogrel available to undergo hepatic conversion to the active metabolite [1] | Share of Clopidogrel inactivated by esterases in the blood after absorption [1] | SMILES | Nonresponders (<10% reduction in platelet aggregation) ([2]; 5 μmol/L ADP) | Semiresponders (10% to 29% reduction in platelet aggregation) ([2]; 5 μmol/L ADP) | Nonresponders (<10% reduction in platelet aggregation) ([2]; 20 μmol/ADP) | Semiresponders (10% to 29% reduction in platelet aggregation) ([2]; 20 μmol/ADP) | Patients with Clopidogrel resistance (<10% reduction in aggregation in response to 5 μmol/L ADP) ([4]; at 2 hours) | Patients with Clopidogrel resistance (<10% reduction in aggregation in response to 5 μmol/L ADP) ([4]; at 24 hours) | Patients with Clopidogrel resistance (<10% reduction in aggregation in response to 5 μmol/L ADP) ([4]; at 5 days) | Patients with Clopidogrel resistance (<10% reduction in aggregation in response to 5 μmol/L ADP) ([4]; at 30 days) | Time for platelet aggregation and bleeding time to return to baseline after treatment is discontinued [5] |
| --- | --- | --- | --- | --- | --- | --- | --- | --- | --- | --- | --- | --- | --- |
| 1 to 3 h | – | – | – | COC(=O)[C@H](c1ccccc1Cl)N1CCc2sccc2C1 [Clopidogrel bisulfate] | – | – | – | – | – | – | – | – | – |
| – | does not inhibit | 15% | 85% | COC(=O)[C@H](c1ccccc1Cl)N1CCc2sccc2C1 [Clopidogrel, Methyl (+)-(S)-alpha-(o-chlorophenyl)-6,7-dihydrothieno(3,2-c)pyridine-5(4H)-acetate] | 5% | 9% | 11% | 26% | 63 % of patients | 31 % of patients | 31 % of patients | 15 % of patients | about 5 days |
